The numbers were not newly measured in publication PMC10535842, “Novel Thiazole-Based SIRT2 Inhibitors Discovered via Molecular Modelling Studies and Enzymatic Assays” (Pharmaceuticals, 2023), which cites them from elsewhere.

Several values for one entry are separate records, joined by “and”; a condition that tells them apart may be missing. Equal entries are not always repeated.

One data set relates to SIRT2. Particulars: substrate ZMAL; read-out: SIRT2 IC50 (series A, compounds 1-26); cited from earlier work.
For the compound `Cc1cccc(Cc2cnc(NC(=O)CSc3nc(C)cc(C)n3)s2)c1` [Compound 3], the half-maximal inhibitory concentration (IC50) was 1.64 µM.

As to `Cc1cc(C)nc(SCC(=O)Nc2ncc(Cc3ccc(Cl)cc3)s2)n1` [Compound 4], the half-maximal inhibitory concentration (IC50) was 3.4 µM. As to `CCOc1cccc(Cc2cnc(NC(=O)CSc3nc(C)cc(C)n3)s2)c1` [Compound 5], the IC50 was 1.33 µM. As for `Cc1cc(C)nc(SCC(=O)Nc2ncc(Cc3ccc(-c4ccccc4)cc3)s2)n1` [Compound 6], the half-maximal inhibitory concentration (IC50) was 164 µM and > 167 µM. For the compound `O=C(CSc1cccc(O)c1)Nc1ncc(Cc2cccc3ccccc23)s1` [Compound 7], the IC50 is 143 µM. `Cc1cc(C)cc(SCC(=O)Nc2ncc(Cc3cccc4ccccc34)s2)c1` [Compound 8]: the concentration for half-maximal inhibition (IC50) is 207 µM and > 167 µM. For the compound `Cc1cc(C)nc(SCC(=O)Nc2ncc(C(=O)Nc3cccc4ccccc34)s2)n1` [Compound 9], the concentration for half-maximal inhibition (IC50) is 33 µM.

Turning to `Cc1cc(C)nc(SC(C)C(=O)Nc2ncc(Cc3cccc4ccccc34)s2)n1` (stereo not drawn) [Compound 12], the IC50 was 9.77 µM.

Consider `Cc1cc(C)nc(SC(C)C(=O)Nc2ncc(Cc3cccc4ccccc34)s2)n1` (stereo not drawn) [Compound 13], for which the IC50 is 0.26 µM. Take `Cc1cc(C)nc(SCC(=O)Nc2ncc(Cc3c(C)ccc4ccccc34)s2)n1` [Compound 14]: the IC50 was 0.31 µM. As to `Cc1cc(C)nc(SCC(=O)Nc2ncc(Cc3cccc4ccc(Br)cc34)s2)n1` [Compound 15], the IC50 was 0.21 µM.

With `Cc1cc(C)nc(SCC(=O)Nc2ncc(Cc3cccc4cc(Cl)ccc34)s2)n1` [Compound 16], the 50% inhibitory concentration (IC50) was 0.48 µM. Take `O=C(CSc1ncccn1)Nc1ncc(Cc2cccc3ccccc23)s1` [Compound 17]: the IC50 was 2.34 µM and 2.34 to 16.8 µM.

On to `CCc1cc(CC)nc(SCC(=O)Nc2ncc(Cc3cccc4ccccc34)s2)n1` [Compound 18], for which the IC50 is 45.6 µM. Regarding `Cc1nc(SCC(=O)Nc2ncc(Cc3cccc4ccccc34)s2)nc(C)c1C` [Compound 19], the 50% inhibitory concentration (IC50) is 15 µM. `CCCc1cc(O)nc(SCC(=O)Nc2ncc(Cc3cccc4ccccc34)s2)n1` [Compound 21]: the IC50 is 127 µM. Consider `Cc1cc(C)nc(SCC(=O)Nc2nnc(Cc3ccc(Cl)cc3)s2)n1` [Compound 23], for which the half-inhibitory concentration (IC50) was 30.9 µM. On to `Cc1cc(C)nc(SCC(=O)Nc2nnc(Cc3ccc(Br)cc3)s2)n1` [Compound 24], for which the IC50 was 168 µM. On to `Cc1cc(C)nc(SCC(=O)Nc2nnc(Cc3cccc4ccccc34)s2)n1` [Compound 25], for which the half-inhibitory concentration (IC50) was 1.89 µM.

As to `CCOc1ccc2nc(NC(=O)CSc3nc(C)cc(C)n3)sc2c1` [Compound 26], the IC50 was 207 µM and > 167 µM.

The next data set relates to SIRT2. The settings on record: substrate RHKK(Ac)-AMC; read-out: SIRT2 IC50 (series B, compounds 27-111); cited from earlier work.
As to `COc1ccc2ccccc2c1Cn1cnc2sc3c(c2c1=O)CCC(NCCc1ccncc1)C3` (stereo not drawn) [Compound 81], the concentration for half-maximal inhibition (IC50) was 2.75 µM. `O=c1c2c3c(sc2ncn1Cc1cccc2ccccc12)CC(NCCc1ccncc1)CC3` (stereo not drawn) [Compound 82]: the IC50 was 5.79 µM. On to `O=c1c2c3c(sc2ncn1Cc1ccc2ccccc2c1)CC(NCCc1ccncc1)CC3` (stereo not drawn) [Compound 83], for which the half-maximal inhibitory concentration (IC50) was 9.6 µM.

`O=c1c2c3c(sc2ncn1Cc1cccc2ccccc12)CC(NCc1cncnc1)CC3` (stereo not drawn) [Compound 84]: the half-inhibitory concentration (IC50) is 6.45 µM. In the case of `O=c1c2c3c(sc2ncn1Cc1ccc2ccccc2c1)CC(NCc1cncnc1)CC3` (stereo not drawn) [Compound 85], the concentration for half-maximal inhibition (IC50) was 5.3 µM. Take `COc1ccc2ccccc2c1Cn1cnc2sc3c(c2c1=O)CCC(NCC1CCCCC1)C3` (stereo not drawn) [Compound 86]: the IC50 was 1.65 µM. With `O=c1c2c3c(sc2ncn1Cc1ccc2ccccc2c1)CC(NCC1CCCCC1)CC3` (stereo not drawn) [Compound 87], the IC50 was 5.53 µM. As to `O=c1c2c3c(sc2ncn1Cc1cccc2cccnc12)CC(NCC1CCCCC1)CC3` (stereo not drawn) [Compound 88], the half-maximal inhibitory concentration (IC50) is 2.43 µM. In the case of `COc1ccccc1Cn1cnc2sc3c(c2c1=O)CCC(NCC1CCCCC1)C3` (stereo not drawn) [Compound 89], the half-inhibitory concentration (IC50) was 9.18 µM. With `COc1ccc2ccccc2c1Cn1cnc2sc3c(c2c1=O)CCC(NCC1CCCO1)C3` (stereo not drawn) [Compound 90], the concentration for half-maximal inhibition (IC50) was 1.9 µM. Regarding `O=c1c2c3c(sc2ncn1Cc1cccc2ccccc12)CC(NCC1CCCO1)CC3` (stereo not drawn) [Compound 91], the IC50 is 12.5 µM.

For `O=c1c2c3c(sc2ncn1Cc1ccc2ccccc2c1)CC(NCC1CCCO1)CC3` (stereo not drawn) [Compound 92], the IC50 is 13.1 µM. In the case of `COc1ccc2ccccc2c1Cn1cnc2sc3c(c2c1=O)CCC(NCC1CCOC1)C3` (stereo not drawn) [Compound 93], the IC50 was 6.03 µM. As for `O=c1c2c3c(sc2ncn1Cc1cccc(-c2ccccc2)c1)CC(NCC1CCOC1)CC3` (stereo not drawn) [Compound 94], the IC50 is 2.58 µM. `O=c1c2c3c(sc2ncn1Cc1cccc2cccnc12)CC(NCCC1CCCCC1)CC3` (stereo not drawn) [Compound 95]: the 50% inhibitory concentration (IC50) was 5.85 µM. With `O=c1c2c3c(sc2ncn1Cc1cccc(-c2ccccc2)c1)CC(NCCC1CCCCC1)CC3` (stereo not drawn) [Compound 96], the concentration for half-maximal inhibition (IC50) was 3.74 µM.

For `COc1ccc2ccccc2c1Cn1cnc2sc3c(c2c1=O)CCC(NC1CCCC1)C3` (stereo not drawn) [Compound 97], the IC50 is 1.18 µM. For the compound `COc1ccc(Cn2cnc3sc4c(c3c2=O)CCC(NC2CCCC2)C4)c2ccccc12` (stereo not drawn) [Compound 98], the half-inhibitory concentration (IC50) was 0.73 µM and < 1 µM. With `O=c1c2c3c(sc2ncn1Cc1cccc(-c2ccccc2)c1)CC(NC1CCCC1)CC3` (stereo not drawn) [Compound 99], the half-maximal inhibitory concentration (IC50) is 1.52 µM. In the case of `COc1ccc2ccccc2c1Cn1cnc2sc3c(c2c1=O)CCC(NC1CCOCC1)C3` (stereo not drawn) [Compound 100], the IC50 is 1.11 µM.

For the compound `COc1ccc(Cn2cnc3sc4c(c3c2=O)CCC(NC2CCOCC2)C4)c2ccccc12` (stereo not drawn) [Compound 101], the IC50 is 5.06 µM.

Consider `O=c1c2c3c(sc2ncn1Cc1cccc(-c2ccccc2)c1)CC(NC1CCOCC1)CC3` (stereo not drawn) [Compound 102], for which the IC50 is 1.74 µM.

With `O=c1c2c3c(sc2ncn1Cc1cccc(-c2ccccc2)c1)CC(NCCN1CCOCC1)CC3` (stereo not drawn) [Compound 103], the 50% inhibitory concentration (IC50) is 3.14 µM.

In the case of `O=c1c2c3c(sc2ncn1Cc1cccc(-c2ccccc2)c1)CC(NCCN1CCCC1)CC3` (stereo not drawn) [Compound 104], the IC50 is 3.78 µM.

`O=c1c2c3c(sc2ncn1Cc1cccc2cccnc12)CC(NC1CCc2ccccc21)CC3` (stereo not drawn) [Compound 105]: the IC50 is 3.09 µM. Take `COc1ccccc1Cn1cnc2sc3c(c2c1=O)CCC(NC1CCc2ccccc21)C3` (stereo not drawn) [Compound 106]: the IC50 is 16.3 µM. On to `O=c1c2c3c(sc2ncn1Cc1cccc2cccnc12)CC(NC1CCCc2ccccc21)CC3` (stereo not drawn) [Compound 107], for which the half-maximal inhibitory concentration (IC50) was 5.49 µM. `COc1ccc(CNCCc2sc3ncn(Cc4c(OC)ccc5ccccc45)c(=O)c3c2C)cc1` [Compound 108]: the concentration for half-maximal inhibition (IC50) was 3.36 µM. Consider `COc1ccc2ccccc2c1Cn1cnc2sc(CCNCc3cccnc3)c(C)c2c1=O` [Compound 109], for which the half-maximal inhibitory concentration (IC50) was 2.15 µM. With `COc1ccc2ccccc2c1Cn1cnc2sc(CCNCc3ccncc3)c(C)c2c1=O` [Compound 110], the IC50 was 2.93 µM.

For the compound `COc1ccc2ccccc2c1Cn1cnc2sc(CCNC3CCOCC3)c(C)c2c1=O` [Compound 111], the IC50 was 8.15 µM.

The IC50 is the concentration at which inhibition is half-maximal.
